Columns and labels:
[1] = tested on: newly introduced microorganisms; experiment: shelf life of dispersion paint after post-preservation; conditions: 50 ppm 2-methyl-1,2-benzisothiazolin-3-one and 10 ppm zinc oxide added after decomposition of CMIT by cysteine
Procedure: The paint produced in this manner was now free of microorganisms through the use of the effective broad-spectrum biocide 5-chloro-2-methylisothiazolin-3-one, but susceptible to newly introduced microorganisms, which can infiltrate the paint during storage, due to the decomposition of the biocide by cysteine.
In order to protect the paint from such a microbial attack during storage, 50 ppm 2-methyl-1,2-benzisothiazolin-3-one and 10 ppm zinc oxide, based on the dispersion paint, were added to the dispersion paint for post-preservation.

[2] = decomposition of 2-methylisothiazolin-3-one in aqueous dispersion paint using sodium thiosulfate; format: physicochemical
Text: However, it is disadvantageous that, according to the described method, said isothiazolinones, particularly MIT, are not quantitatively and/or irreversibly destroyed, as a result of which they are still contained in the products and reaction products and still can cause problems for people prone to allergic reactions, and/or cause contact dermatitis or aerogenic contact dermatitis in highly sensitive people.

[3] = tested on: microorganisms introduced by the individual components of the paint; experiment: microbiological testing of dispersion paint preserved with 5-chloro-2-methylisothiazolin-3-one; format: cell-based; conditions: 20 ppm 5-chloro-2-methylisothiazolin-3-one with <1 wt % 2-methylisothiazolin-3-one; water-based dispersion paint; growth detectable in individual components
Procedure: 20 ppm 5-chloro-2-methylisothiazolin-3-one, with a content of 2-methylisothiazolin-3-one of <1 wt %, was added to a preservative-free styrene acrylate dispersion. The styrene acrylate dispersion preserved in this manner was then used to produce a water-based dispersion paint. The paint produced had the following composition: • 25.7 wt % water • 0.2 wt % acrylate-based wetting and dispersion agents • 0.2 wt % mineral oil-based defoamer • 2.0 wt % water softener (sodium polyphosphate) • 0.2 wt % ammonia • 4.0 wt % titanium oxide (pigment) • 51.0 wt % calcium carbonate (filler) • 5.0 wt % talcum (filler) • 0.4 wt % cellulose ether • 2.0 wt % organic solvent for lowering the minimum film-forming temperature • 9.0 wt % of the styrene acrylate dispersion preserved with 20 ppm 5-chloro-2-methylisothiazolin-3-one • 20 ppm 5-chloro-2-methylisothiazolin-3-one, with a content of 2-methylisothiazolin-3-one of <1 wt %

[4] = decomposition of 5-chloro-2-methylisothiazolin-3-one in dispersion paint by cysteine, HPLC; format: physicochemical; conditions: 3 hours after adding 50 ppm cysteine, based on the dispersion paint
Text: In order to produce a paint, which is harmless for allergy suffers with respect to the 5-chloro-2-methylisothiazolin-3-one and 2-methylisothiazolin-3-one, from the dispersion paint, which contained significant quantities of 5-chloro-2-methylisothiazolin-3-one, these isothiazolin-3-ones were decomposed by adding 50 ppm cysteine, based on the dispersion paint.

Cn1sc2ccccc2c1=O [2-methyl-1,2-benzisothiazolin-3-one]
shelf life of the paint [1]: at least 6 months

Cn1sccc1=O [2-methylisothiazolin-3-one]
destruction of 2-methylisothiazolin-3-one using sodium thiosulfate [2]: could not be quantitatively or irreversibly destroyed

Cn1sc(Cl)cc1=O [5-chloro-2-methylisothiazolin-3-one]
microbial growth in the dispersion paint [3]: no microbial growth was found | 5-chloro-2-methylisothiazolin-3-one detectable in the dispersion paint by HPLC [4]: no more 5-chloro-2-methylisothiazolin-3-one was detectable
